Experimental data reported in US20210183467A1, “SYSTEM AND METHOD FOR USING MICROBIOME TO DE-RISK DRUG DEVELOPMENT” (YALE UNIVERSITY, priority 2018, published 2021).

How the values were obtained:
[1] = Liver S9 enzyme assay of conversion to BVU; assay type: in vitro ADME
Experimental: Human and murine S9 liver fractions are purchased from Thermo Fisher Scientific (HMS9L and MSMCPL, respectively). Enzyme assays are performed for the deglycosylation of arabinosyluracil derivatives. In brief, assays are performed at 37° C. Reaction volumes are 150 μL with liver S9 fractions at 5 μg/μL and BRV or SRV at 100 μM in 10 mM phosphate buffer (pH 7.4). Reactions are initiated by addition of drugs to pre-warmed reaction mixture. 10 μL samples are collected and quenched in 10 μL acetonitrile on ice at 0, 5, 10, 15, 20, 30, 45, 60, 90, 120, 180, 270, and 360 min after initiation. Substrates and reaction product are extracted and quantified by LC-MS as described below.

[2] = test system: human gut microbial communities; assay: Bacterial conversion assay with fecal microbial communities; assay type: in vitro ADME; settings: human unfractionated fecal microbial communities
Experimental: (§1) All handling of human materials is conducted with the permission of the Yale Human Investigation Committee. Samples are collected and stored as described in A. L. Goodman et al., Extensive personal human gut microbiota culture collections characterized and manipulated in gnotobiotic mice, Proceedings of the National Academy of Sciences,108, 6252-6257 (2011), the content of which is incorporated by reference herein. In brief, a single fecal sample is collected from each healthy human donor, stored on ice for less than 12 hours prior to transport into an anaerobic chamber (Coy Laboratory Products) and homogenization in pre-reduced GMM containing 20% glycerol. Aliquots of 0.5 mL volume are anaerobically prepared in 1.8 mL glass E-Z vials (Wheaton Industries) and stored at −80° C. Murine fecal samples are collected from individually caged animals (2 males and 2 females) and are stored at −80° C. without further processing.
(§2) Frozen stocks are re-suspended in 4 mL pre-reduced GMM and incubated anaerobically at 37° C. for 14 h. Cultures are diluted (1:10) in 20% pre-reduced GMM containing BRV or SRV at 100 μM and further incubated at 25° C. anaerobically. […] Substrates and reaction product are extracted and quantified by LC-MS as described below.

[3] = test system: murine gut microbial communities; assay: as above; assay type: in vitro ADME; settings: murine unfractionated fecal microbial communities
Experimental: as §1, §2

[4] = Oral BRV in conventional (CV) and germfree (GF) mice, drug and metabolite levels; assay type: in vivo, C57BL/6 mice
Experimental: Oral BRV was administered to conventional (CV) and germfree (GF) C57BL/6 mice, and BRV and BVU concentrations were measured over time along the length of the gastrointestinal tract as shown in FIG. 4C. Serum kinetics of BRV and BVU in conventional (CV) and germ-free (GF) mice were compared following oral BRV administration.
All experiments using mice are performed using protocols approved by the Yale University Institutional Animal Care and Use Committee. Germfree (GF) 8 to 12 week old C57BL/6J mice are maintained in flexible plastic gnotobiotic isolators with a 12-hour light/dark cycle and GF status monitored by PCR and culture-based methods. Conventional C57BL/6J mice (Jackson Laboratories) are purchased at the age of 6-7 weeks and kept in the lab for 2-3 weeks before experiments. All mice are provided a standard, autoclaved mouse chow (5013 LabDiet, Purina) ad libitum.
(§3) Each drug treatment is performed using 20 treated and 5 to 6 untreated animals. Both genders are equally represented in each group and evenly distributed across the different time points for sample collection. Animals (n=5 per time point and group) are given 100 mg/kg body weight of BRV or SRV as suspensions in PBS (200 μL PBS for controls) by oral gavage. One blood sample is collected from each animal at an early time point (0.5, 1, 1.5, or 2 hours after drug administration) by submandibular bleeding. At 3, 5, 7, and 9 h, mice are sacrificed and tissue samples are collected into sample tubes and snap-frozen. Fecal samples are collected before euthanization and re-suspended in PBS (1 mL) through vigorous shaking. 20 μL are then plated on BHI blood plates and incubated aerobically and anaerobically at 37° C. to check GF, GN^WT, and GN^MUT animals for contamination. Monocolonized mice are also checked for contamination by PCR using primers 7 and 8.
200 μL of 0.1 mm zirconia/silica beads (BioSpec Products) and 500 μL of organic solvent (acetonitrile:methanol, 1:1) supplemented with internal standard are added to 50-350 mg of pre-weighed solid material. Material is homogenized by mechanical disruption with a bead beater (BioSpec Products) set for 2 minutes on high setting at room temperature. After incubation for at least 1 h at −20° C., samples are centrifuged (3220 rcf, −9° C.) for 15 min. 10 μL of supernatant are diluted with 10 μL H2O for analysis by LC-MS.
Samples for LS-MS analysis are prepared as described above. Chromatographic separation is performed on a C18 Kinetex Evo column (Phenomenex, 100 mm×2.1 mm, […]) using mobile phase A: H2O, 0.1% formic acid and B: methanol, 0.1% formic acid at 45° C. 5 μL of sample are injected at 100% A and 0.4 mL/min flow followed by a linear gradient to 95% B over 5.5 min and 0.4 mL/min flow leading to thymine, BVU, SRV, and BRV elution at 0.95, 2.0, 2.15, and 2.4 min, respectively. The internal standards caffeine and sulfamethoxazole elute at 1.9 and 2.1 min, respectively. The qTOF is operated in positive scanning mode (50-1000 m/z) and the following source parameters: VCap is 3500 V; nozzle voltage is 2000 V; gas temp is 225 C; drying gas 13 L/min; nebulizer is 20 psig; sheath gas temp is 225 C; and sheath gas flow is 12 L/min. Online mass calibration is performed using a second ionization source and a constant flow (5 μL/min) of reference solution (121.0509 and 922.0098 m/z). Compounds are identified based on the retention time of chemical standards and their accurate mass (tolerance 20 ppm).

[5] = assay type: in vivo, C57BL/6J mice
Experimental: Germfree mice were colonized with the wildtype and mutant strains. BRV was administered.
Individually caged GF C57BL/6J mice are colonized by oral gavage with 200 μL of an overnight GMM culture of either B. thetaiotaomicron wild type or bt4554 strains to generate GN^WT or GN^MUT mice, respectively. After 4 days, bacterial loads are determined by CFU plating on BHI blood agar prior to drug treatment.
as §3

In the case of `O=c1[nH]c(=O)n([C@H]2C[C@H](O)[C@@H](CO)O2)cc1/C=C/Br` [BRV, Brivudine], the “conversion of BRV to BVU” value ([1]; human S9 liver fractions) is reported as “stoichiometric conversion to BVU”, the “conversion of BRV to BVU” value ([1]; murine S9 liver fractions) is reported as “stoichiometric conversion to BVU” and the “conversion of BRV to BVU” value [2] is reported as “stoichiometric conversion to BVU”. For the same compound, the “conversion of BRV to BVU” value [3] was “stoichiometric conversion to BVU”, the “endogenous DPD substrates (thymine) in the liver” value ([4]; BRV-treated CV mice) was “accumulate endogenous DPD substrates” and the “drug concentrations along the length of the gastrointestinal tract” value ([4]; CV mice, oral BRV) was “progressively reduced”. For the same compound, the “BRV levels over time in the duodenum” value ([4]; CV versus GF mice, oral BRV) was “similar”, the “serum BRV” value ([4]; CV versus GF mice, oral BRV) was “without a corresponding decrease” and the “BRV levels further along the gastrointestinal tract and in feces” value ([4]; GF mice versus CV, oral BRV) was “significantly higher”. The “absorption of BRV from the lower intestine” value ([5]; GN^MUT mice excrete the drug in feces) was “poorly absorbed”, the “metabolism of cecal BRV by wildtype B. thetaiotaomicron” value ([5]; GN^WT mice) was “completely metabolizes” and the “thymine in the liver” value ([5]; GN^WT mice after BRV administration) was “thymine accumulation in the liver”. For the same compound, the BRV serum kinetics ([5]; GN^WT versus GN^MUT mice) was “indistinguishable”.
